Experimental data as given in patent US9802903B2, “Process for preparing antiviral compound” (AbbVie Inc., priority 2010, dated 2017).

Assay: Ames test (mutagenic potential)
Format: cell-based
Settings: genotoxic testing of process compounds
From the text: As discussed above, compound I (including salts thereof) is useful as a drug for treating HCV in humans. Thus, it is important that it be so prepared that it is safe for administration to humans. As one skilled in the art would understand, one aspect of drug safety is the minimization of the amount of genotoxic impurities that are associated with the production of a given drug, and, can therefore also be present in the drug product. A couple of well established tests are used to measure the genotoxicity of chemical compounds. One such test is the computer-based Derek analysis, and the other—the Ames test, which is a biological assay that assesses the mutagenic potential of chemical compounds.

SMILES	Ames test result
Nc1ccc(I)cc1 [Compound 1a, 4-iodoaniline]	negative
CS(=O)(=O)Nc1ccc(I)cc1 [Compound 2a, N-(4-iodophenyl)methanesulfonamide]	negative
